Tests used:
[1] = Acute toxicity in 12 hr fasted male CD-1(ICR) mouse assessed as pathological damage in spleen at 2 g/Kg, IG measured after 14 days by H and E staining based analysis; format: tissue-based; conditions: in vivo, po, 2000 mg/kg, 336 h, time 14 day
[2] = MRT (0 to infinity) in Sprague-Dawley rat at 10 mg/kg, po measured upto 24 hrs by LC-MS/MS analysis; format: ADME, organism-based; conditions: in vivo
[3] = Acute toxicity in 12 hr fasted male CD-1(ICR) mouse assessed as changes in body weight at 2 g/Kg, IG measured after 14 days; conditions: in vivo, po, 2000 mg/kg, 336 h, time 14 day
[4] = Half life in Sprague-Dawley rat at 1 mg/kg, iv measured upto 24 hrs by LC-MS/MS analysis; format: ADME, organism-based; conditions: in vivo
[5] = Acute toxicity in 12 hr fasted female CD-1(ICR) mouse assessed as pathological damage in heart at 2 g/Kg, IG measured after 14 days by H and E staining based analysis; format: tissue-based; conditions: in vivo, po, 2000 mg/kg, 336 h, time 14 day
[6] = Resistant factor, ratio of EC50 for antiviral activity against HIV-1 IIIB harboring reverse transcriptase […] mutant to EC50 for antiviral activity against wild type HIV-1 IIIB; format: functional
[7] = MRT (0 to t) in Sprague-Dawley rat at 1 mg/kg, iv measured upto 24 hrs by LC-MS/MS analysis; format: ADME, organism-based; conditions: in vivo
Cytochrome P450 2C19 = Cytochrome P450 2C19 (Homo sapiens, UniProt P33261); assay: Inhibition of CYP2C19 in human liver microsomes using S-mephenytoin as substrate incubated for 15 to 45 mins in presence of NADPH; format: ADME, Microsome
[8] = Half life in Sprague-Dawley rat at 10 mg/kg, po measured upto 24 hrs by LC-MS/MS analysis; format: ADME, organism-based; conditions: in vivo
[9] = Cmax in Sprague-Dawley rat at 10 mg/kg, po measured upto 24 hrs by LC-MS/MS analysis; format: ADME, organism-based; design: time < 24 hrs, dose 10 mg/kg, route po; conditions: in vivo
[10] = system: Human immunodeficiency virus 1; assay: Antiviral activity against wild type HIV-1 IIIB harboring reverse transcriptase Y181C mutant infected in human MT4 cells assessed as protection against virus-induced cytopathic effect incubated for 5 days by MTT assay; format: functional, organism-based; conditions: Human immunodeficiency virus 1, IIIB, MT4, 120 h
Cytochrome P450 2C9 = Cytochrome P450 2C9 (Homo sapiens, UniProt P11712); assay: Inhibition of CYP2C9 in human liver microsomes using tolbutamide as substrate incubated for 15 to 45 mins in presence of NADPH
[11] = Acute toxicity in 12 hr fasted male CD-1(ICR) mouse assessed as behavioral abnormalities at 2 g/Kg, IG measured after 14 days; conditions: in vivo, po, 2000 mg/kg, 336 h, time 14 day
[12] = system: Human immunodeficiency virus 1; assay: Antiviral activity against wild type HIV-1 IIIB harboring reverse transcriptase K103N mutant infected in human MT4 cells assessed as protection against virus-induced cytopathic effect incubated for 5 days by MTT assay; format: functional, organism-based; conditions: Human immunodeficiency virus 1, IIIB, MT4, 120 h
[13] = AUC (0 to infinity) in Sprague-Dawley rat at 10 mg/kg, po measured upto 24 hrs by LC-MS/MS analysis; format: ADME, organism-based; design: dose 10 mg/kg, time < 24 hrs, route po; conditions: in vivo
[14] = MRT (0 to t) in Sprague-Dawley rat at 10 mg/kg, po measured upto 24 hrs by LC-MS/MS analysis; format: ADME, organism-based; conditions: in vivo
[15] = Acute toxicity in 12 hr fasted female CD-1(ICR) mouse assessed as pathological damage in lung at 2 g/Kg, IG measured after 14 days by H and E staining based analysis; format: tissue-based; conditions: in vivo, po, 2000 mg/kg, 336 h, time 14 day
[16] = Acute toxicity in 12 hr fasted male CD-1(ICR) mouse assessed as pathological damage in lung at 2 g/Kg, IG measured after 14 days by H and E staining based analysis; format: tissue-based; conditions: in vivo, po, 2000 mg/kg, 336 h, time 14 day
[17] = Acute toxicity in 12 hr fasted female CD-1(ICR) mouse assessed as behavioral abnormalities at 2 g/Kg, IG measured after 14 days; conditions: in vivo, po, 2000 mg/kg, 336 h, time 14 day
[18] = Oral bioavailability in Sprague-Dawley rat at 10 mg/kg measured upto 24 hrs by LC-MS/MS analysis; format: ADME, organism-based; conditions: in vivo
[19] = system: Human immunodeficiency virus 1; assay: Antiviral activity against wild type HIV-1 IIIB harboring reverse transcriptase Y188L mutant infected in human MT4 cells assessed as protection against virus-induced cytopathic effect incubated for 5 days by MTT assay; format: functional, organism-based; conditions: Human immunodeficiency virus 1, IIIB, MT4, 120 h
[20] = Cmax in Sprague-Dawley rat at 1 mg/kg, iv measured upto 24 hrs by LC-MS/MS analysis; format: ADME, organism-based; design: time < 24 hrs, dose 1 mg/kg, route iv; conditions: in vivo
[21] = Acute toxicity in 12 hr fasted female CD-1(ICR) mouse assessed as pathological damage in brain at 2 g/Kg, IG measured after 14 days by H and E staining based analysis; format: tissue-based; conditions: in vivo, po, 2000 mg/kg, 336 h, time 14 day

Sequence of Cytochrome P450 2C9 (P11712 whole entry): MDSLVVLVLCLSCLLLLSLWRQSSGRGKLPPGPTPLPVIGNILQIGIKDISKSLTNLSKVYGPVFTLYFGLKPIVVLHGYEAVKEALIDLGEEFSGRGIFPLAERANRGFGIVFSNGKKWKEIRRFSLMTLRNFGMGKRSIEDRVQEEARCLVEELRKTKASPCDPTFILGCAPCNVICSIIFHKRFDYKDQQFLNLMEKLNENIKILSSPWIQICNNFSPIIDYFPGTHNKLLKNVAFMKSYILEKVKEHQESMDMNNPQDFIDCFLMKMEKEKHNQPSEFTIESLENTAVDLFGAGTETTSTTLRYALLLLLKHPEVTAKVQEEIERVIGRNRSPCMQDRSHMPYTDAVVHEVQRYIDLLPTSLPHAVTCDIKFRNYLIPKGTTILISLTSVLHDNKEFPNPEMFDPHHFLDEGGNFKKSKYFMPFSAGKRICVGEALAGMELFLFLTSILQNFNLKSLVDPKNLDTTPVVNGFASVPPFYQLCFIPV
Sequence of Cytochrome P450 2C19 (P33261 whole entry): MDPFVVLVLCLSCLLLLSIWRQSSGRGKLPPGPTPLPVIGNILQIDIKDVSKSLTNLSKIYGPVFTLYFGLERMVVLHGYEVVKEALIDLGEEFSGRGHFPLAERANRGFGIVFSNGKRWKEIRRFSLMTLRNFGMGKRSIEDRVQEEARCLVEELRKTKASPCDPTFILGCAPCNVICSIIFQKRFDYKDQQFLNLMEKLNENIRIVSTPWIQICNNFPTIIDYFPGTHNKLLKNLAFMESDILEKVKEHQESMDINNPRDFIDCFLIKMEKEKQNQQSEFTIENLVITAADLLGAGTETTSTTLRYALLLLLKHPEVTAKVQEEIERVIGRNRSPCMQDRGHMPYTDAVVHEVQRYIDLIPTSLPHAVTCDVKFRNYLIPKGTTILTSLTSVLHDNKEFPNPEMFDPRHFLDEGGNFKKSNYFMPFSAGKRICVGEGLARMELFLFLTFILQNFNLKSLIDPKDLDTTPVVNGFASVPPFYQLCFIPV

For CONC(=O)c1cnc(Nc2ccc(C#N)cc2)nc1Oc1c(C)cc(-c2ccc(C#N)cc2)cc1C, the Activity [1] was “Non-Toxic”, the MRT inf [2] was 5.21 h and the Activity [3] was “Non-Toxic”. The half-life [4] was 3.66 h, the Activity [5] was “Non-Toxic” and the “Ratio EC50” value [6] was 5.7. For the same molecule, the MRT last at 24 h [7] was 3.56 h, the IC50 (Cytochrome P450 2C19) was 23600 nM and the half-life [8] was 5.18 h. The Cmax [9] was 616 ng/mL, the EC50 [10] was 29 nM and the IC50 (Cytochrome P450 2C9) was 18500 nM. The Activity [11] was “Non-Toxic”, the EC50 [12] was 8 nM and the AUC(0-inf) [13] was 3650 ng·h/mL. For the same molecule, the MRT last at 24 h [14] was 4.54 h, the Activity [15] was “Non-Toxic” and the Activity [16] was “Non-Toxic”. For the same molecule, the Activity [17] was “Non-Toxic”, the bioavailability [18] was 31.2% and the EC50 [19] was 52 nM. The Cmax [20] was 431 ng/mL and the Activity [21] was “Non-Toxic”.
